Results taken from patent US20040086500A1, “Rh116 polypeptides and its fragments and polynucleotides encoding said polypeptides and therapeutic uses” (priority 2000, published 2004).
Entries after “also recorded” stand apart in the source; their conditions may differ.

Columns and labels:
[1] = test system: PBMCs of CD8 lymphocyte-depleted patients; format: cell-based, human
Text: Specifically, MB inhibits by 70 to 100% the level of HIV viral protein p24 in the culture supernatants. This effect correlates with the level of expression of viral messenger RNAs (nonspliced and single-spliced).

[2] = test system: human immunodeficiency virus (HIV); settings: macrophages, dendritic cells, PBMCs of infected patients; cited from earlier work
RH116 messenger RNA = assay: Semiquantitative RT-PCR of RH116 mRNA in CD8-depleted PBMCs of HIV-1 infected patients; format: cell-based, human; settings: for maximum mean inhibition of expression of the RH116 messenger RNA: murabutide 10 μg/ml
Text: Venous blood is collected from patients sero-positive for HIV-1 and peripheral blood mononuclear cells (PBMCs) are isolated by centrifugation on Ficoll-Hypaque (AMERSHAM PHARMACIA BIOTECH, Uppsala, Sweden). The cells are washed carefully in order to remove the platelets and are depleted of CD8+ cells using electro-magnetic beads covered with an anti-CD8 antibody (DYNAL, Oslo, Norway). The depleted PBMCs obtained using the manufacturer's protocol contain less than 3% of CD8+ cells after analysis by flow cytometry. […]. Next, the PBMCs are cultured and then recovered in the presence or absence of murabutide (N-acetylmuramyl-L-alanyl-D-glutamine-n-butyl ester) (provided by ISTAC SA, Lille, France) (10 μg/ml) and interleukin 2 (IL-2) (10 μg/ml) for 6 or 24 hours.
(§1) The total cellular RNA extracted using the RNA plus kit (Q-BIOgene, Illkirch, France) is pretreated with DNAse I. Synthesis of the first strand on the polyA+ RNA was primed with a p(dT)15 primer (BOERHINGER MANNHEIM, ROCHE DIAGNOSTICS, France) and carried out with the reverse transcriptase derived from the Moloney murine leukemia virus (M-MLV) (PROMEGA, Madison, Calif., USA) (1 hour at 37° C., 3 min at 92° C.). The resulting cDNA is then subjected to 25 to 35 repeat amplification cycles with the AmpliTaq Gold polymerase (APPLIED BIOSYSTEMS). PCR amplification of the GAPDH sequences is carried out in order to obtain an internal control. […]
PBMCs of patients (P) infected with HIV or of control healthy donors (C) are isolated, depleted of CD8+ lymphocytes (Dynabeads, Dynal) and stimulated with phytohemagglutinin, PHA (5 μg/ml), for 3 days. […] The number of amplification cycles was determined beforehand (35 cycles). The amplified fragments are visualized on an agarose gel (1%) in the presence of ethidium bromide, and then quantified using the Imager master program (Pharmacia). […]

RH116 gene = assay: Semiquantitative RT-PCR of RH116 gene expression in PBMCs of healthy donors; format: cell-based, human; settings: 10 healthy controls, in particular after 6 hours, 10 μg/ml
Method: as §1
PBMCs of patients (P) infected with HIV or of control healthy donors (C) are isolated, depleted of CD8+ lymphocytes (Dynabeads, Dynal) and stimulated with phytohemagglutinin, PHA (5 μg/ml), for 3 days. […] The number of amplification cycles was determined beforehand (35 cycles). The amplified fragments are visualized on an agarose gel (1%) in the presence of ethidium bromide, and then quantified using the Imager master program (Pharmacia). […] The results are then expressed as % increase or % inhibition of expression of the gene compared with the untreated cells. […]

[3] = in vivo; cited from earlier work

N-acetylmuramyl-L-alanyl-D-glutamine-n-butyl ester [murabutide]
number of live cells (lack of toxicity) [1]: remain unchanged
HIV replication [2]: inhibits
expression of the RH116 gene compared with untreated cells (RH116 messenger RNA; 12 patients, 6 or 24 h, 10 μg/ml): significant inhibition
maximum mean inhibition of expression of the RH116 messenger RNA (RH116 messenger RNA; 6 hours, patient No. 5): 90%
maximum mean inhibition of expression of the RH116 messenger RNA (RH116 messenger RNA; 24 hours, patient No. 3): 57%
expression of the RH116 gene compared with untreated cells (RH116 gene): increases the level of expression; also recorded: very significant increase
clinical tolerance [3]: good clinical tolerance
inflammatory reactions [3]: does not induce inflammatory reactions
pyrogenicity [3]: not pyrogenic
toxicity in clinical studies [3]: has not shown severe toxicity
